Tests used:
HEL92.1.7 = HEL92.1.7 cell proliferation experiment (Cell Titer-Glo); type: cell-based; conditions: Homo sapiens, HEL 92.1.7; HEL92.1.7 cells, 72 hours
JAK1 = JAK1 (Homo sapiens, UniProt P23458); assay: Kinase activity test on JAK1 (Caliper EZ Reader conversion rate)
JAK3 = target: T1, JAK3 (Homo sapiens, UniProt P52333); assay: Kinase activity test on JAK3 (Caliper EZ Reader conversion rate)
T1 sequence (P52333 1-1124): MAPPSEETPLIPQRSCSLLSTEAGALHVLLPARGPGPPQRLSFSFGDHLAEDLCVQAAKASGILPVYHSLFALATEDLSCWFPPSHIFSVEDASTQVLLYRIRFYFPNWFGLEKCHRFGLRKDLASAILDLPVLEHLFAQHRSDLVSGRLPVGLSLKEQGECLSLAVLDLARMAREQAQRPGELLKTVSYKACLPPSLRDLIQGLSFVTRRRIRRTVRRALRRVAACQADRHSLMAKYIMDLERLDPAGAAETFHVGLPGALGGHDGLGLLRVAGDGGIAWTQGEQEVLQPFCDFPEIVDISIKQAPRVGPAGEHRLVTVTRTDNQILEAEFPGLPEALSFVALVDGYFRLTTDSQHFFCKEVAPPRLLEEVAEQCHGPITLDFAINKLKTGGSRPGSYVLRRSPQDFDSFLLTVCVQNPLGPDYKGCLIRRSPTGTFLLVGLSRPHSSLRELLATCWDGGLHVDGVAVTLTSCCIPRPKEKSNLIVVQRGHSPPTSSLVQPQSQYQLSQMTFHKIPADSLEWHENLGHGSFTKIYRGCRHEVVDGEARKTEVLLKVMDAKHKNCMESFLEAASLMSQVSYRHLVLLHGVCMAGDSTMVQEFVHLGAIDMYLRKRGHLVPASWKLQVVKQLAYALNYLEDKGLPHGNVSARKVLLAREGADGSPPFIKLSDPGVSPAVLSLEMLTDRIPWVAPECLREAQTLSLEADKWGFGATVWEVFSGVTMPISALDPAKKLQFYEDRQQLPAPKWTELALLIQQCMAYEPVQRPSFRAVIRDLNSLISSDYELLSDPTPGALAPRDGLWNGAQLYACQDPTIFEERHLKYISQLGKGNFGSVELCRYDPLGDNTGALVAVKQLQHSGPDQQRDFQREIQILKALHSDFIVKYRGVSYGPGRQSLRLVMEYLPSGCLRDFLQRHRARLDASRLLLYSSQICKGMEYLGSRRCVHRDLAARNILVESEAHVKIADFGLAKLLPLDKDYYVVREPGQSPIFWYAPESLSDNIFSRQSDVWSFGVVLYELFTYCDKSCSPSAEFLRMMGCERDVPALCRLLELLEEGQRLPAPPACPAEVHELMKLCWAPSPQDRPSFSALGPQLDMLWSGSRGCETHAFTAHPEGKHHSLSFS

[1] = Pharmacokinetic test in SD rats, intragastric administration; type: in vivo; conditions: rat, po, single intragastric administration, 25 mg/kg, plasma; for Cmax: read-out: Blood concentration Cmax; for AUC(0-t): read-out: Curve area AUClast; for half-life: read-out: Half life t1/2 (converted); for Tmax: read-out: Time to peak Tmax
Experimental: SD rats were used as the test animals.
Standard curve and preparation and processing of quality control samples:
Stock solution was diluted with 50% acetonitrile/water solution to obtain standard working solutions of 0.04, 0.10, 0.20, 0.40, 1.00, 2.00, 4.00 μg/mL, and quality control working solutions of 0.10, 1.00, 3.00 μg/mL. 2.50 μL of standard curve working solutions and quality control working solutions were added to 47.5 μL of blank rat plasma, respectively, to obtain standard curve solutions having analyte concentrations of 2.00, 5.00, 10.00, 20.00, 50.00, 100.00, 200.00 ng/mL and quality control samples having concentrations of 5.00, 50.00, and 150.00 ng/mL. 200 μL of acetonitrile (containing 5 ng/mL of the internal standard loratadine) was added. After vortexing for 3 minutes, the solutions were centrifuged at 15000 rpm at 4° C. for 15 minutes. 100 μL of the supernatant was taken for LC-MS/MS analysis. WinNonlin® 8.0 was used to calculate the experimental results.

JAK2 = JAK2 (Homo sapiens, UniProt O60674); assay: Kinase activity test on JAK2 (Caliper EZ Reader conversion rate); conditions: for JAK1/JAK2 / JAK3/JAK2: ratio of IC50 values; for JAK1/JAK2: selectivity for JAK2 over JAK1; for JAK3/JAK2: selectivity for JAK2 over JAK3
Sequence of JAK2 (O60674 whole entry): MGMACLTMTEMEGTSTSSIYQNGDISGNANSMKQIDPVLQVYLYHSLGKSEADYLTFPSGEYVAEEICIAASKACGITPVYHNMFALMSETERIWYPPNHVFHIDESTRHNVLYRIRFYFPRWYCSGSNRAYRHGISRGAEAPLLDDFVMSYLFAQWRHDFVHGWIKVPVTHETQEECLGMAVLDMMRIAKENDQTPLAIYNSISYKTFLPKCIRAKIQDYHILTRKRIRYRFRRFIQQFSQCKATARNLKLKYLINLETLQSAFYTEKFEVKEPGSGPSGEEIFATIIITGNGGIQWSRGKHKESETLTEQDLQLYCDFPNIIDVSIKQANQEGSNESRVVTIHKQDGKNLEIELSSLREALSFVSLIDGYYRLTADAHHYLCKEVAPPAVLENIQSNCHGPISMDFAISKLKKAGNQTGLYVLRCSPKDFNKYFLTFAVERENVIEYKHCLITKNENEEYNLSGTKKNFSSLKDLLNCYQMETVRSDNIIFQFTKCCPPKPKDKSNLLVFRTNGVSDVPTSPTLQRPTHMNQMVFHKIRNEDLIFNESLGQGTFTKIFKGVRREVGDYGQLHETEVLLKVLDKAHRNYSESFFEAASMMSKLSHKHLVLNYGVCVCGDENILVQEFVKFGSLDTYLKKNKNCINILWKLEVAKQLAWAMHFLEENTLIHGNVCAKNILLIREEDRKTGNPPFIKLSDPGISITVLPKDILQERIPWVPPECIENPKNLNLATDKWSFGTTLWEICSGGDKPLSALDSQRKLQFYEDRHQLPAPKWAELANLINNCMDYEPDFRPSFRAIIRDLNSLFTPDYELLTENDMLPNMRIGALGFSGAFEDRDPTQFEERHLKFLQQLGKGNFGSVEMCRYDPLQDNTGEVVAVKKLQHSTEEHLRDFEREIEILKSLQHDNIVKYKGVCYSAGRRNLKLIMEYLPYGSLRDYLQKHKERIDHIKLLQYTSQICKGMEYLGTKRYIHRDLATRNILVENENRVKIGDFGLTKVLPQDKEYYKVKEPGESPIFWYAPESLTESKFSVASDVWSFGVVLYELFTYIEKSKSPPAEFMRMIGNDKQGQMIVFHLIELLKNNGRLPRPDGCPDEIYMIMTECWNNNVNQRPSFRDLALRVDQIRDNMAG

[2] = Acute toxicity test, single oral administration to ICR mice (MTD); type: in vivo; conditions: ICR, mouse, in vivo, po, read-out: MTD (maximum tolerated dose)
TF-1 = TF-1 cell proliferation experiment (CellTiter Glo); type: cell-based; conditions: Homo sapiens; TF-1 cells, 72 hours; read-out: TF-1 (μM), proliferation inhibition
ICR mice = assay: Acute toxicity test, single oral administration to ICR mice (MTD); type: in vivo

Sequence of JAK1 (P23458 whole entry): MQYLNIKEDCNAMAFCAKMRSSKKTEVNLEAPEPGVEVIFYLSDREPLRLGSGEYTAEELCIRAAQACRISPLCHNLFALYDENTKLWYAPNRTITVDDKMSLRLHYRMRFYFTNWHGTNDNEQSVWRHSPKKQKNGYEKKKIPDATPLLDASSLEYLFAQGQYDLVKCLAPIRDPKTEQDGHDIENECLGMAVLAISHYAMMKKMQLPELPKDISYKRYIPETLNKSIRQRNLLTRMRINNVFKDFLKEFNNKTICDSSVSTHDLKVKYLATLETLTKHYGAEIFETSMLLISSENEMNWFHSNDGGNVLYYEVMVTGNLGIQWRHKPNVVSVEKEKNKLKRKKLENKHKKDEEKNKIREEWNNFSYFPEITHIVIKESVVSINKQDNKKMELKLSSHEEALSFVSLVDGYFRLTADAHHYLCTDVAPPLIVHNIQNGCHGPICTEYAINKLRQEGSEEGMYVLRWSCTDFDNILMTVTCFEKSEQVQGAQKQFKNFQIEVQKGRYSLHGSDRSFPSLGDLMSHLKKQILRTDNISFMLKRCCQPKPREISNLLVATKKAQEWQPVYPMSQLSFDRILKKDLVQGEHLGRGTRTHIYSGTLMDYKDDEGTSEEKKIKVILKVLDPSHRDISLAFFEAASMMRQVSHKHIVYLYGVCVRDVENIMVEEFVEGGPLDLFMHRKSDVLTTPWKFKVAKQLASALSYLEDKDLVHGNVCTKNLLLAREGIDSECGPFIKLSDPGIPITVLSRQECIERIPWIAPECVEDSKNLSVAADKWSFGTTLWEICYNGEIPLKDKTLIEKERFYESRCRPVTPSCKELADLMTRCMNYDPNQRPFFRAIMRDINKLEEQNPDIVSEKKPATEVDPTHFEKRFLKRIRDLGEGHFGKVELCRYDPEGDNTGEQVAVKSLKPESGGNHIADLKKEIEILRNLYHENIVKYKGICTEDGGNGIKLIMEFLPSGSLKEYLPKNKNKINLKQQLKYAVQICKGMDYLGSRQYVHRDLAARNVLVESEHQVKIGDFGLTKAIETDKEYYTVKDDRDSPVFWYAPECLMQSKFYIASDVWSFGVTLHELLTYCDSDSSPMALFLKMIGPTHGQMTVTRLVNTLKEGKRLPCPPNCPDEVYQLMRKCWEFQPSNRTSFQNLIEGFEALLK

IC50 (JAK1)	IC50 (JAK3)	IC50 (JAK2)	JAK1/JAK2 (JAK2)	JAK3/JAK2 (JAK2)	Compound	IC50 (HEL92.1.7)	Cmax [1]	AUC(0-t) [1]	half-life [1]	Tmax [1]	MTD at 6 days [2]	IC50 (TF-1)	MTD (maximum tolerated dose) (ICR mice)
105 nM	980 nM	0.8 nM	131	1225	CC(C)(C)NS(=O)(=O)c1cccc(N2CCc3cnc(Nc4ccc(CN5CCOCC5)cc4)nc32)c1 [Compound I-11]	0.24 µM						0.17 µM	
98 nM	879 nM	0.7 nM	140	1256	CN1CCN(Cc2ccc(Nc3ncc4c(n3)N(c3cccc(S(=O)(=O)NC(C)(C)C)c3)CC4)cc2)CC1 [Compound I-12]	0.22 µM						0.2 µM	
102 nM	998 nM	1.1 nM	93	907	CC(C)(C)NS(=O)(=O)c1cccc(N2CCc3cnc(Nc4ccc(OCCN5CCSCC5)cc4)nc32)c1 [Compound I-14]	0.43 µM	1230 ng/mL	900 ng·h/mL	6.9 h	1.5 h		0.28 µM	
203 nM	1390 nM	2 nM	101	695	CC(C)(C)NS(=O)(=O)c1cccc(N2CCc3cnc(Nc4ccc(N5CCNCC5)cc4)nc32)c1 [Compound I-16]	0.21 µM						0.15 µM	
221 nM	1560 nM	2.2 nM	100	709	CC(C)(C)NS(=O)(=O)c1cccc(N2CCc3cnc(Nc4ccc(N5CCOCC5)cc4)nc32)c1 [Compound I-17]	0.25 µM						0.14 µM	
109 nM	1110 nM	0.7 nM	156	1588	CC(C)(C)NS(=O)(=O)c1cccc(N2CCc3cnc(Nc4ccc(N5CCCCC5)cc4)nc32)c1 [Compound I-18]	0.2 µM						0.15 µM	
101 nM	988 nM	0.8 nM	126	1235	CN1CCC(c2ccc(Nc3ncc4c(n3)N(c3cccc(S(=O)(=O)NC(C)(C)C)c3)CC4)cc2)CC1 [Compound I-21]	0.22 µM						0.15 µM	
105 nM	873 nM	0.6 nM	175	1455	CC(C)(C)NS(=O)(=O)c1cccc(N2CCc3cnc(Nc4ccc(CN5CCCC5)cc4)nc32)c1 [Compound I-22]	0.24 µM						0.22 µM	

Continued, compound first:

Compound	IC50 (JAK1)	IC50 (JAK3)	IC50 (JAK2)	JAK1/JAK2 (JAK2)	JAK3/JAK2 (JAK2)	IC50 (HEL92.1.7)	Cmax [1]	AUC(0-t) [1]	half-life [1]	Tmax [1]	MTD at 6 days [2]	IC50 (TF-1)	MTD (maximum tolerated dose) (ICR mice)
CC(C)(C)NS(=O)(=O)c1cccc(N2CCc3cnc(Nc4ccc(OCCN5CCCC5)cc4)nc32)c1 [Compound I-1]	210 nM	1260 nM	2.5 nM	84	504	0.23 µM	998 ng/mL	798 ng·h/mL	5.8 h	1 h	> 2000 mg/kg	0.15 µM	
CC(C)(C)NS(=O)(=O)c1cccc(N2CCc3cnc(Nc4ccc(OCCN5CCNCC5)cc4)nc32)c1 [Compound I-2]	189 nM	980 nM	1.1 nM	172	891	0.3 µM	1020 ng/mL	839 ng·h/mL	6 h	1.5 h	≥ 1000 mg/kg	0.21 µM	1500 mg/kg
CC(C)(C)NS(=O)(=O)c1cccc(N2CCc3cnc(Nc4ccc(OCCN5CCOCC5)cc4)nc32)c1 [Compound I-3]	100 nM	877 nM	1 nM	100	877	0.19 µM	1230 ng/mL	903 ng·h/mL	5.9 h	1.5 h		0.18 µM	
CC(C)(C)NS(=O)(=O)c1cccc(N2CCc3cnc(Nc4ccc(OCCN5CCCCC5)cc4)nc32)c1 [Compound I-5]	99 nM	1230 nM	1.1 nM	90	1118	0.18 µM	1120 ng/mL	812 ng·h/mL	6.1 h	1.5 h		0.22 µM	
CC(C)(C)NS(=O)(=O)c1cccc(N2CCc3cnc(Nc4ccc(OCCN5CCS(=O)(=O)CC5)cc4)nc32)c1 [Compound I-6]	97 nM	890 nM	0.75 nM	129	1187	0.35 µM						0.15 µM	
CN1CCC(Cc2ccc(Nc3ncc4c(n3)N(c3cccc(S(=O)(=O)NC(C)(C)C)c3)CC4)cc2)CC1 [Compound I-7]	103 nM	900 nM	0.9 nM	114	1000	0.25 µM						0.19 µM	
CCN1CCN(Cc2ccc(Nc3ncc4c(n3)N(c3cccc(S(=O)(=O)NC(C)(C)C)c3)CC4)cc2)CC1 [Compound I-8]	151 nM	1000 nM	1.2 nM	126	833	0.33 µM						0.23 µM	
CC(C)(C)NS(=O)(=O)c1cccc(N2CCc3cnc(Nc4ccc(CN5CCS(=O)(=O)CC5)cc4)nc32)c1 [Compound I-9]	191 nM	1330 nM	1.7 nM	112	782	0.17 µM						0.21 µM	
CC(C)(C)NS(=O)(=O)c1cccc(N2CCc3cnc(Nc4ccc(CC5CCOCC5)cc4)nc32)c1 [Compound I-10]	100 nM	987 nM	0.5 nM	200	1974	0.2 µM						0.19 µM	
CC(C)(C)NS(=O)(=O)c1cccc(N2CCc3cnc(Nc4ccc(CN5CCSCC5)cc4)nc32)c1 [Compound I-13]	89 nM	865 nM	1 nM	89	865	0.31 µM	979 ng/mL	955 ng·h/mL	5.5 h	2 h	≥ 1000 mg/kg	0.27 µM	
Cc1cnc(Nc2ccc(OCCN3CCCC3)cc2)nc1Nc1cccc(S(=O)(=O)NC(C)(C)C)c1 [Fedratinib, reference compound]						0.58 µM	579 ng/mL	559 ng·h/mL	4 h	1.5 h	250 mg/kg	1.57 µM	

Reference: patent US12421238B2, “Selective dihydropyrrolopyrimidine JAK2 inhibitors” (CHENGDU JINRUI FOUNDATION BIOTECH CO., LTD., priority 2019, dated 2025)
